Literature values, collected in patent publication US20220287302A1, “COMPOSITIONS FOR PATHOGEN IN[…] PATHOGEN REDUCTION MANAGEMENT” (priority 2020, published 2022).

O=c1c(O)c(O)c1=O [Squaric acid, 3,4-dihydroxy-3-cyclobutene-1,2 dione]
pKa for the first proton (first proton): 1.5
pKa for the second proton (second proton): 3.4
